Reference: patent publication US9308176B2, “Less abusable pharmaceutical preparations” (Supernus Pharmaceuticals, Inc, priority 2004, dated 2016)

Assay: aqueous solubility at different pH
Source text: Moreover, alkaline agents, such as sodium bicarbonate, calcium carbonate, meglumine, and calcium phosphate, can be used to convert salt forms of amine drugs to free base. Generally, free bases have much lower solubility than their salts.

SMILES: COc1ccc2c3c1O[C@H]1C(=O)CC[C@@]4(O)[C@@H](C2)N(C)CC[C@]314.Cl [oxycodone hydrochloride]
- solubility (pH 1.5, simulated gastric fluid): 182 mg/mL
- solubility (pH 7.4, aqueous buffer): 6.1 mg/mL
